Three compounds from US10533018B2, “Antimicrobial prochelators to target drug-resistant bacteria and methods of making and using the same” (Duke University, priority 2015, dated 2020) can be followed below.

Read-outs that look alike come from different tables or passages of the source.

Series [1] has as its system mammalian cells. In words: LC-MS of spent mammalian cell culture medium. Format: in vitro ADME. To be noted: spent cell culture medium of cytotoxicity assay; after 4 hours. The method, then:
Suspecting that the cytotoxicity apparent at high concentrations of DB4-51 in the mammalian cells may be due to PT released by non-specific hydrolysis of DB4-51, we analyzed the spent cell culture medium used for the cytotoxicity assay by LC-MS and found 50-60% loss of detectable, intact prochelator compared to the non-incubated controls after 4 hours.

In series [2] the test system is CCD-19Lu human lung fibroblast cells.
Description: (§1) CellTox Green LDH Cytotoxicity Detection Kit was purchased from Promega. Cell lines were purchased from the ATCC. All work was performed in a laminar-flow hood using sterile techniques. […] After splitting and counting, black, clear bottom 96-well plates were seeded at a density of 15,000 cells/well and incubated overnight at 37° C. in a fully humidified atmosphere containing 5% CO2. […] Untreated cells served as the negative control while wells containing untreated cells incubated with 1% Triton X-100 served as the positive control.
(§2) Using a cytotoxicity assay, the viability of mammalian cells was monitored as a function of their membrane integrity.
Series [3] in a line: Zinpyr-1 fluorescence assay. Format: physicochemical. On the procedure: Lanes three and four contain 100 μM DB4-51 and 0.5 units/ml β-lactamase respectively and confirm these molecules are innocent in the fluorescence of zinpyr-1. Lane five contains 100 μM DB4-51 and 0.5 units/ml β-lactamase.
Series [4] relates to HepG2 human liver epithelial cells.
Description: as §1, §2
Series [5] deals with E. coli. Format: cell-based. To be noted: checkerboard, LB, OD600. The text has this:
Further evidence for the influence of bioavailable copper on the IC50 of DB4-51 was obtained by using a checkerboard assay. […] Serial dilutions of DB4-51 in LB were arrayed against dilutions of chelator (BCS and EDTA). The antagonism exists between our prochelator, DB4-51, and the strong, extracellular chelators BCS and EDTA. […] However, at lower concentrations, EDTA works antagonistically with DB4-51 by restoring bacterial growth. This trend further underscores the influence that copper and potentially other metals have on the growth inhibitory activity of DB4-51.

Series [6] relates to Type III β-lactamase from Enterobacter cloacae. In words: LC-MS conversion of prochelator by β-lactamase. Format: biochemical. On the procedure: A commercially available β-lactamase (type III from Enterobacter cloacae, Sigma Aldrich) was used to verify the specificity of compound DB4-51 activation. Aqueous samples of the prochelator with and without β-lactamase were incubated at 25° C. and LC-MS was performed periodically to monitor the conversion. Percent conversion was calculated based upon the area under the LC-MS peak that corresponds to the mass of DB4-51.
LC-MS performed on samples containing 100 μM DB4-51, 10 μM Rofecoxib (as internal standard), and 0.5 units/mL β-lactamase in PBS. Samples were incubated at room temperature and analyzed via LC-MS at time 0. The mass spectrum corresponding to the chromatographic peak eluting at 14 min matches the expected m/z value for […]. After incubation, a new peak appears at 7 mins with corresponding m/z values consistent with expected masses of PT disulfide and the 2:1 PT complex with iron. The internal standard was Rofecoxib which elutes at 16 min. The concentrations of DB4-51, PT, and internal standard were calculated based on prepared calibration curves of the integrated area under the UV peak of each component.
The reaction products of the prochelator DB4-162 were analyzed by LC-MS. A sample of 100 μM DB4-162 and 10 μM Rofecoxib (internal standard) in PBS was divided into two LC-MS vials and to one was added 0.5 units/mL β-lactamase. After incubating at room temperature, the samples were run on the LC-MS. Integrating the area under the peak of the UV-trace gives a measure of the concentration of that species. By serial dilution, a calibration curve was constructed in order to quantify the concentration of DB4-162 present in solution. The mass spectrum confirms that the prochelator, with a molecular weight of 477.1 g/mol, elutes at 14.5 minutes (FIG. 10).

[7] abbreviates: concentrations below 500 μM, 24 hour.

Regarding `O=C(Cc1ccccc1)N[C@@H]1C(=O)N2C(C(=O)O)=C(CSc3cccc[n+]3[O-])CS[C@H]12` [DB4-51, 2-((((6R,7R)-2-carboxy-8-oxo-7-(2-phenylacetamido)-5-thia-1-azabicyclo[4.2.0]oct-2-en-3-yl)methyl)thio)pyridine 1-oxide], the “loss of detectable, intact prochelator vs non-incubated controls” value in series [1] is given as 50-60%. For the same compound, the LD50 in series [2] (24 h) and in series [4] (24 h) was above 500 µM in each case. Moreover, the cytotoxicity result is recorded as “non-toxic” in series [2] (below 250 μM, 24 h) and “non-toxic” in series [4] (below 250 μM, 24 h). Also, in series [3] (100 μM + 0.5 units/ml β-lactamase), the “decrease of Zn-zinpyr-1 fluorescence” value is given as “more than 50%”. For the same compound, the “Zn-zinpyr-1 fluorescence on addition of compound” value in series [3] (400 equivalents (100 μM), no β-lactamase) is reported as “unaffected”. The cell death result in series [4] (at 500 μM, 24 h) is recorded as “more than 50%”. Besides, the “interaction with extracellular chelators BCS and EDTA” value in series [5] was “antagonism”. The “Percent conversion (LC-MS peak area)” value in series [6] (100 μM, 0.5 units/ml β-lactamase, pH 7.4 PBS, after 4 hours) is given as around 80%. In addition, in series [6] (after 4 hours in the presence of β-lactamase), the “decrease of chromatographic peak area of prochelator” value is on record as “more than 80%”. The “PT released from the prochelator (area under PT peak)” value in series [6] (with β-lactamase, PT difficult to quantify) turned out to be 50%.
For `Cc1csc(=S)n1OCC1=C(C(=O)O)N2C(=O)[C@@H](NC(=O)Cc3ccccc3)[C@H]2SC1` [DB4-162, (6R,7R)-3-(((4-methyl-2-thioxothiazol-3(2H)-yl)oxy)methyl)-8-oxo-7-(2-phenylacetamido)-5-thia-1-azabicyclo[4.2.0]oct-2-ene-2-carboxylic acid], the “reduction of prochelator peak” value in series [6] (100 μM, 0.5 units/mL β-lactamase, PBS, 4 hours) is “more than 95%”.
Consider `[O-][n+]1ccccc1S` [PT, 2-mercaptopyridine N-oxide], for which the cell death in series [2] (setting [7]) and in series [4] (setting [7]) was at most 50% each time.
